Assay results published in patent US20250368697A1, “MODIFIED PEPTIDE DERIVED FROM URECHIS UNICINCTUS IN PREPARATION OF DRUG FOR TREATING ALCOHOLIC LIVER DISEASE” (Beijing Institute of Petrochemical Technology, priority 2024, published 2025).
Read-outs that look alike come from different tables or passages of the source. Where no end group is shown, it is not given here.

Key:
[1] = test system: interleukin-6 (IL-6); experiment: IL-6 content in alcoholic damaged HepG2 cells (ELISA); type: cell-based, human; conditions: 3 mM (positive control); 500 mM ethanol-damaged HepG2
Method: (§1) HepG2 cells are collected, digested, centrifuged, and resuspended. The HepG2 cells are then seeded into a 6-well plate at a density of 1×10^6 cells per well, with 1.6 mL of cell suspension added to each well. After incubating the plate in a 37° C., 5% CO2 incubator for 24 hours, 200 μL of distilled water is added to the blank wells as the blank group. Referring to Section 1.2.2.2 and the preparation of blank group cell sample, an anhydrous ethanol-induced damage model is established. The HepG2 cells are damaged with 500 mM anhydrous ethanol for 24 hours. The model group receives 200 μL of distilled water, while the positive control wells receive 200 μL of NAC at a final concentration of 3 mM. The treatment wells receive 200 μL of the modified peptide derived from Urechis unicinctus of F2-1 at final concentrations of 200 μM, 300 μM, and 400 μM (dissolved in water). After adding the modeling solution, the plate is incubated in a 37° C., 5% CO2 incubator for an additional 24 hours. The 6-well plate is then taken out and placed on ice. […]
(§2) ELISA kits are purchased from Hangzhou Leyi Biotechnology Co., Ltd. An ELISA plate reader is used to measure indicators such as the interleukin-1β (IL-1β) ELISA kit, interleukin-6 (IL-6) ELISA kit, and Cytochrome P450 2E1 (CYP2E1) ELISA kit.

[2] = test system: Cytochrome P450 2E1 (CYP2E1); experiment: CYP2E1 content in alcoholic damaged HepG2 cells (ELISA); type: cell-based, human; conditions: 500 mM ethanol-damaged HepG2
Method: (§3) HepG2 cells are collected, digested, centrifuged, and resuspended. The HepG2 cells are then seeded into a 6-well plate at a density of 1×10^6 cells per well, with 1.6 mL of cell suspension added to each well. After incubating the plate in a 37° C., 5% CO2 incubator for 24 hours, 200 μL of distilled water is added to the blank wells as the blank group. Referring to Section 1.2.2.2 and the preparation of blank group cell sample, an anhydrous ethanol-induced damage model is established. The HepG2 cells are damaged with 500 mM anhydrous ethanol for 24 hours. The model group receives 200 μL of distilled water, while the positive control wells receive 200 μL of NAC at a final concentration of 3 mM. The treatment wells receive 200 μL of the modified peptide derived from Urechis unicinctus of F2-1 at final concentrations of 200 μM, 300 μM, and 400 μM (dissolved in water). After adding the modeling solution, the plate is incubated in a 37° C., 5% CO2 incubator for an additional 24 hours. The 6-well plate is then taken out and placed on ice. All liquids in the wells are discarded, and the cells are washed three times with pre-chilled phosphate buffer solution (PBS). High-efficiency radio immunoprecipitation assay (RIPA) lysis buffer is added, and the HepG2 cells are lysed on ice for 30 minutes. The lysates are then centrifuged at 12,000 rpm for 10 minutes at low temperature, and the white precipitate is discarded.
as §2

[3] = test system: HepG2 cells; experiment: Biochemical indicators (ALT, AST, TC, TG, HDL-C, LDL-C) in alcoholic damaged HepG2 cells; type: cell-based, human; conditions: 3 mM (positive control); 500 mM ethanol-damaged HepG2
Method: as §3
Reagent kits are purchased from Nanjing Jiancheng Bioengineering Institute. An enzyme-linked immunosorbent assay (ELISA) plate reader is used to measure biochemical indicators such as alanine aminotransferase (ALT), aspartate aminotransferase (AST), triglycerides (TG), total cholesterol (TC), high-density lipoprotein cholesterol (HDL-C), and low-density lipoprotein cholesterol (LDL-C).

[4] = test system: interleukin-1β (IL-1β); experiment: IL-1β content in alcoholic damaged HepG2 cells (ELISA); type: cell-based, human; conditions: 3 mM (positive control); 500 mM ethanol-damaged HepG2
Method: as §1, §2

[5] = test system: HepG2 cells; type: cell-based; conditions: human, 24 h
Method: When a cell density of the cells reached 90%, the cells are digested and passaged to form a single-cell suspension. The cell concentration is determined using a hemocytometer, and the suspension is adjusted to 8×10^4 cells per well. A volume of 180 μL of the cell suspension is added to each well of a 96-well plate. The 96-well plate is then incubated in a 37° C., 5% CO2 cell incubator for 24 hours. The cells are subjected to alcoholic damage for 24 hours using gradient concentrations of anhydrous ethanol at […] (final concentrations). A blank group received no addition. All solutions in the 96-well plate are aspirated, and 100 μL of a 10% CCK-8 solution is added to each well. After incubation for 1 hour, the absorbance is measured at 450 nanometers (nm) using a microplate reader. The cell viability is calculated using the following formula: […]
HepG2 cells are collected, digested, centrifuged, and resuspended. The HepG2cells are then seeded into a 96-well plate at a density of 8×10^4 cells per well, with 160 μL of cell suspension added to each well. After incubating the plate in a 37° C., 5% CO2 incubator for 24 hours, 20 μL of distilled water is added to a blank well as the blank group. Referring to Section 1.2.2.2 and the preparation of blank group cell sample, an anhydrous ethanol-induced damage model is established. The HepG2 cells are damaged with 500 mM anhydrous ethanol for 24 hours. The model group received 20 μL of distilled water, while the positive control wells received 20 μL of N-acetylcysteine (NAC) at a final concentration of 3 mM. The treatment wells receive 20 μL of the modified peptide derived from Urechis unicinctus of F2-1 at final concentrations of 200 μM, 300 μM, and 400 μM (dissolved in water). The 96-well plate is then incubated in a 37° C., 5% CO2 incubator for 24 hours after adding the modeling solution. […] The absorbance is measured at 450 nm using a microplate reader after 1 hour of incubation. The cell viability is calculated using the following formula: […]

| Compound | IL-6 content in HepG2 cells [1] [pg/mL] | CYP2E1 content in HepG2 cells ([2]; 3 mM (positive control)) [U/mg prot] | ALT level in HepG2 cells [3] [U/L] | AST level in HepG2 cells [3] [U/L] | HDL-C level in HepG2 cells [3] [mmol/L] | LDL-C level in HepG2 cells [3] [mmol/L] | TC level in HepG2 cells [3] [mmol/L] | TG level in HepG2 cells [3] [mmol/L] | IL-1β content in HepG2 cells [4] [pg/mL] | cell viability ([5]; 200 μM) [%] | cell viability ([5]; 300 μM) [%] | cell viability ([5]; 400 μM) [%] | CYP2E1 content in HepG2 cells ([2]; 200 μM (low dose), vs model group) | CYP2E1 content in HepG2 cells ([2]; 300 μM (medium dose), vs model group) | CYP2E1 content in HepG2 cells ([2]; 400 μM (high dose)) [U/mg prot] |
| --- | --- | --- | --- | --- | --- | --- | --- | --- | --- | --- | --- | --- | --- | --- | --- |
| CC(=O)N[C@@H](CS)C(=O)O [NAC, N-acetylcysteine] | 87.25 ± 5.30 | 7.80±0.96 | 7.93±0.14 | 8.26±0.30 | 0.12 ± 0.02 | 0.01 ± 0.00 | 0.06 ± 0.02 | 0.49 ± 0.00 | 123.36 ± 1.67 |  |  |  |  |  |  |
| IHVKF [F2-1, IHVKF] |  |  |  |  |  |  |  |  |  | 80.65±5.67 | 85.39±9.61 | 94.58±4.22 | do not significantly reduce | do not significantly reduce | 7.97±0.78 |
